Laboratory results taken from ChEMBL document CHEMBL4842323, “Aromatic Polyketides and Hydroxamate Siderophores from a Marine-Algae-Derived Streptomyces Species” (J Nat Prod, 2021).
Counter-ions that a name gives are not always drawn. Calls of active or inactive are those of the source. No cut-off for these calls is given here.

Tests used:
Pseudomonas aeruginosa = assay: Antibacterial activity against Pseudomonas aeruginosa ATCC10145 assessed as inhibition of bacterial growth incubated for 12 hrs by agar dilution method; format: functional, organism-based
Staphylococcus aureus [1] = assay: Antibacterial activity against methicillin-resistant Staphylococcus aureus subsp. aureus ATCC43300 assessed as inhibition of bacterial growth incubated for 12 hrs by agar dilution method; format: functional, organism-based
Escherichia coli = assay: Antibacterial activity against Escherichia coli ATCC11775 assessed as inhibition of bacterial growth incubated for 12 hrs by agar dilution method; format: functional, organism-based
Staphylococcus aureus [2] = assay: Antibacterial activity against Staphylococcus aureus ATCC6538 assessed as inhibition of bacterial growth incubated for 12 hrs by agar dilution method; format: functional, organism-based
B16 = assay: Cytotoxicity against mouse B16 cells assessed as reduction in cell viability incubated for 72 hrs by MTT assay; format: functional, cell-based
Nakaseomyces glabratus = assay: Antifungal activity against Candida glabrata ATCC2001 assessed as inhibition of fungal growth incubated for 12 hrs by agar dilution method; format: functional, organism-based
Candida albicans = assay: Antifungal activity against Candida albicans ATCC10231 assessed as inhibition of fungal growth incubated for 12 hrs by agar dilution method; format: functional, organism-based
[3] = Binding affinity to Fe3+ assessed as compound-Fe3+ complex formation incubated for 3 hrs by Chrome Azurol S assay

COc1cc([C@@H]2c3cccc(O)c3C(=O)C[C@@]2(O)Cc2ccccc2)oc(=O)c1
Activity (Pseudomonas aeruginosa): inactive
Activity (Staphylococcus aureus [1]): inactive
Activity (Escherichia coli): inactive
Activity (Staphylococcus aureus [2]): inactive
Activity (B16): inactive
Activity (Nakaseomyces glabratus): inactive
Activity (Candida albicans): inactive

CC(=O)N(O)CCCCCNC(=O)CCC(=O)N(O)CCCCCNC(=O)CCc1ccccc1
Activity (Pseudomonas aeruginosa): inactive
Activity (Staphylococcus aureus [1]): inactive
Activity (Escherichia coli): inactive
Activity (Staphylococcus aureus [2]): inactive
EC50 [3]: 12.9 µM
Activity (B16): inactive
Activity (Nakaseomyces glabratus): inactive
Activity (Candida albicans): inactive

COc1cc(Cc2cccc(O)c2C(=O)c2ccccc2)oc(=O)c1
Activity (Pseudomonas aeruginosa): inactive
Activity (Staphylococcus aureus [1]): inactive
Activity (Escherichia coli): inactive
Activity (Staphylococcus aureus [2]): inactive
Activity (B16): inactive
Activity (Nakaseomyces glabratus): inactive
Activity (Candida albicans): inactive

CC(=O)N(O)CCCCCNC(=O)CCC(=O)N(O)CCCCCNC(=O)CCC(=O)N(O)CCCCCN [DEFEROXAMINE MESYLATE]
EC50 [3]: 20.2 µM

COc1cc(Cc2cccc(O)c2)oc(=O)c1
Activity (Pseudomonas aeruginosa): inactive
Activity (Staphylococcus aureus [1]): inactive
Activity (Escherichia coli): inactive
Activity (Staphylococcus aureus [2]): inactive
Activity (B16): inactive
Activity (Nakaseomyces glabratus): inactive
Activity (Candida albicans): inactive

COc1cc(-c2c(O)cccc2-c2ccccc2)oc(=O)c1
Activity (Pseudomonas aeruginosa): inactive
Activity (Staphylococcus aureus [1]): inactive
Activity (Escherichia coli): inactive
Activity (Staphylococcus aureus [2]): inactive
Activity (B16): inactive
Activity (Nakaseomyces glabratus): inactive
Activity (Candida albicans): inactive

CC(=O)N(O)CCCCCNC(=O)CCC(=O)N(O)CCCCCNC(=O)/C=C/c1ccccc1
Activity (Pseudomonas aeruginosa): inactive
Activity (Staphylococcus aureus [1]): inactive
Activity (Escherichia coli): inactive
Activity (Staphylococcus aureus [2]): inactive
EC50 [3]: 39.1 µM
Activity (B16): inactive
Activity (Nakaseomyces glabratus): inactive
Activity (Candida albicans): inactive

O=C1CCC(=O)N(O)CCCCCNC(=O)CCC(=O)N(O)CCCCCNC(=O)CCC(=O)N(O)CCCCCN1 [NOCARDAMINE]
Activity (Pseudomonas aeruginosa): inactive
Activity (Staphylococcus aureus [1]): inactive
Activity (Escherichia coli): inactive
Activity (Staphylococcus aureus [2]): inactive
EC50 [3]: 22.4 µM
Activity (B16): inactive
Activity (Nakaseomyces glabratus): inactive
Activity (Candida albicans): inactive
